Experiments:
Assay type in all cases: cell-based, Mouse
B16 cells [1] = test: MTT cell viability assay in B16 cells; settings: H89 up to 5 μM, 48 hours
Protocol: (§1) Cell viabilities were determined using the MTT assay. Briefly, cells were seeded in 96-well plates (1×10^3 cells/well) and allowed to adhere at 37° C. for 24 hours. Various concentrations of drugs were then added. After 48 hours incubation, 20 μl of MTT solution (2.5 mg/ml in PBS) was added to each well and cells were incubated at 37° C. for 4 hours. Following medium removal, 100 μl of DMSO were added to each well and the plates were gently shaken for 5 minutes. Optical absorbance was determined at 570 nm with a microplate spectrophotometer (BD Bioscience, USA). Absorbance of cells without treatment was regarded as 100% of cell survival. Each treatment was performed in triplicate and each experiment was repeated three times.

B16F10 cells [2] = test: MTT cell viability assay in B16F10 cells; settings: H89 up to 5 μM, 48 hours
Protocol: as §1

B16 cells [3] = test: Measurement of cellular melanin contents in B16 cells; settings: 5 μM H89 with GpS 50-150 μg/ml, 48 hours
Protocol: (§2) Cells were seeded in a 60 mm dish (2×10^5 cells/dish) and allowed to adhere at 37° C. for 24 hours. After adding test samples, cells were incubated for 48 hours and then washed with PBS and lysed in 120 μl of 1 M NaOH followed by 10 minutes of heating at 100° C. to solubilize the melanin. Each lysate (100 μl) was added into a well of a 96-well microplate, and the absorbance was determined at 475 nm with a microplate spectrophotometer (BD Bioscience, USA). The protein concentration of each sample was determined by DC Protein Assay (BIO-RAD, USA). Each experiment was repeated three times. The intracellular melanin amount/protein amount was shown as percentage values. Each percentage value of the drug-treated cells was calculated with respect to that of control cells.

B16F10 cells [4] = test: Measurement of cellular melanin contents in B16F10 cells; settings: 5 μM H89 with GpS 50-100 μg/ml, 48 hours
Protocol: as §2

tyrosinase [5] = test: Tyrosinase activity assay in B16 cells; settings: 5 μM H89 with GpS 50-150 μg/ml, 48 hours
Protocol: (§3) Cells were seeded in 96-well plates (3×10^3 cells/well) and allowed to adhere at 37° C. for 24 hours. Test samples were then added to individual wells. After 48 hours incubation, cells were washed with ice-cold PBS and 100 μl of 0.1% Triton X-100 lysis buffer were added into each well and lysed at −80° C. for 30 minutes. After freezing and thawing, 100 μl of freshly prepared substrate solution (0.1% L-DOPA) were added into a well on a 96-well plate. Following 2 hours incubation, the absorbance was determined at 475 nm with a microplate spectrophotometer (BD Bioscience, USA). Each percentage value of the drug-treated cells was calculated with respect to that of control cells. Each treatment was repeated three times.

tyrosinase [6] = test: Tyrosinase activity assay in B16F10 cells; settings: 5 μM H89 with GpS 50-100 μg/ml, 48 hours
Protocol: as §3

CREB [7] = test: Western blotting of p-CREB and CREB in B16 cells; settings: 5 μM H89 in GpS-treated cells
Protocol: (§4) Cells were collected and total protein lysates were extracted with RIPA lysis buffer [50 mM Tris-Cl, 1% v/v NP-40, 0.35% w/v sodium-deoxycholate, 150 mM NaCl, 1 mM EDTA, 1 mM EGTA, 1 mM phenylmethylsulfonyl fluoride (PMSF), 1 mM NaF, 1 mM Na3VO4, pH adjusted to 7.4] containing a protease inhibitor cocktail (Roche, Germany) for 30 minutes on ice. After centrifugation at 20,800×g for 15 minutes at 4° C., the supernatant was collected and regarded as total cell lysates.
(§5) Protein concentration was determined by DC Protein Assay (Bio Rad, USA). A standard curve was created by bovine serum albumin (BSA) concentration 0, 0.375, 0.75 and 1.5 μg/μl for the determination of the absolute protein concentration. Then, the mixture of reagent A and reagent S (50:1) was mixed with 5 μl of protein lysate. Then 200 μl of reagent B were added and mixed with 10 minutes incubation at room temperature. Finally, the absorbance was determined at 700 nm with a microplate spectrophotometer (BD Bioscience, USA). […]
(§6) Membranes were blocked for 30 minutes with 3% Bovine Serum Albumin in TBST buffer composed of 50 mM Tris (pH 7.6), 150 mM NaCl and 0.1% Tween-20 and incubated with the primary antibody overnight at 4° C. GADPH was used as loading control and was detected using an anti-GADPH polyclonal antibody (Santa cruz Biotechnology). […]

CREB [8] = test: Western blotting of p-CREB and CREB in B16F10 cells; settings: 5 μM H89 in GpS-treated cells
Protocol: as §4, §5, §6

B16 cells [9] = test: Colour of culture medium (extracellular melanin) and cell pellets, B16 cells
Protocol: (§7) The PKA signaling pathway is known to take part in regulating melanogenic events. […] To further investigate the involvement of the PKA pathway in the induction of the melanogenic effect of GpS in B16 and B6F10 cells, a PKA inhibitor, H89, is employed. […] Cells are treated with GpS in the presence or absence of H89 inhibitor. […] H89 treatment effectively lightens the color of the culture medium as well as the cell pellets.

B16F10 cells [10] = test: Colour of culture medium (extracellular melanin) and cell pellets, B16F10 cells
Protocol: as §7

[11] = co-treated with 5 μM H89 and GpS, compared with GpS-treated cells

Compound: O=S(=O)(NCCNC/C=C/c1ccc(Br)cc1)c1cccc2cnccc12 [H89]
- cytotoxicity (MTT) (B16 cells [1]): no cytotoxicity
- cytotoxicity (MTT) (B16F10 cells [2]): no cytotoxicity
- GpS-induced increment of melanin content (B16 cells [3]): significantly attenuated
- GpS-induced increment of melanin content (B16F10 cells [4]): significantly attenuated
- GpS-induced increment of cellular tyrosinase activity (tyrosinase [5]): significantly attenuated
- GpS-induced increment of cellular tyrosinase activity (tyrosinase [6]): significantly attenuated
- GpS-induced p-CREB expression (CREB [7]): significantly attenuates
- total CREB expression (CREB [7]): without significant influence
- GpS-induced p-CREB expression (CREB [8]): significantly attenuates
- total CREB expression (CREB [8]): without significant influence
- colour of cell pellets (B16 cells [9]; [11]): lighter in color
- secretion of melanin induced by GpS (B16 cells [9]; co-treatment with H89): attenuated
- colour of cell pellets (B16F10 cells [10]; [11]): lighter in color
- secretion of melanin induced by GpS (B16F10 cells [10]; co-treatment with H89): attenuated
